Test results from US20230279002A1, “Polymorphs of Crystalline Forms of 3,10-dimethoxy-5,8,13,13a-tetrahydro-6H-isoquinolino[3,2-a]isoquinolin-9-yl 3-fluorobenzenesulfonate and Salts Thereof” (CVI Pharmaceuticals Limited, priority 2020, published 2023).
Read-outs that look alike come from different tables or passages of the source.

What was measured:
Format in all cases: physicochemical
[1] = Solubility in SGF, FaSSIF, FeSSIF, 0.1M HCl, pH 4.5 and pH 6.8 aqueous at 25° C. (HPLC); settings: for solubility: 25 °C, thermodynamic from solid, read-out: Solubility conc.(mg/ml); for Final pH: solubility test
Method: Solubility: Excess drug substance was equilibrated with SGF (Simulated Gastric Fluid), FaSSIF (Simulated Small Intestinal Fluid under Fasted state), FeSSIF (Simulated Small Intestinal Fluid under Fed state), 0.1M HCl, pH 4.5 aqueous, and pH 6.8 aqueous at 25° C. After stirring for 20˜24 h, each sample was filtered, diluted appropriately and analyzed by HPLC. The experiment was terminated once a solubility target of 5 mg/mL was reached.

[2] = TGA (Thermal Gravimetric Analysis) weight loss; settings: DSC and TGA
Method: TGA (Thermal Gravimetric Analysis): Samples of compounds (4˜6 mg) were weighed into the pan, and heated under nitrogen purge using a ramp rate of 20° C./min over the range of 30° C.˜350° C.

[3] = DVS (Dynamic Vapor Sorption) moisture sorption/desorption, hygroscopicity classification
Summary of the method: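 Moisture sorption/desorption profiled by DVS on about 10–20 mg sample, isothermal at 25° C, cycling 0%→95%→0% RH in 5% RH steps. Equilibrium per step taken at dm/dt ≤ 0.01%/min. Hygroscopicity class assigned from %-moisture gain versus rising RH.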

[4] = Solution stability in 0.1 N HCl, pH 4.5 buffer and pH 6.8 buffer at 25° C. and 37° C., HPLC; settings: for Remaining %: 50 μg/mL, 40% MeOH; for Solution stability: 0.1 N HCl, pH 4.5 buffer and pH 6.8 buffer
Summary of the method: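 Methanol stock (1.0 mg/mL) diluted with each medium to ionic strength 0.15 M, final 50 μg/mL in 40% MeOH; acetate used for pH 4.5. For 1b and 3b at pH 6.8, final 25 μg/mL in 40% DMSO. Solutions stored at 25° C. and 37° C.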

[5] = Solid stability at 40° C./0% RH (closed) and 40° C./75% RH (open), HPLC; settings: for 0 day % remaining / 7 day % remaining / 21 day % remaining: solid
Summary of the method: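 Solid compound (5 mg) stored in the dark at 40 °C/0% RH in closed vials and at 40 °C/75% RH open. Samples analysed by HPLC at day 0, 5 and 10, or at days 0, 7 and 21, depending on the study.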

In the case of `COc1ccc2c(c1)CCN1Cc3c(ccc(OC)c3OS(=O)(=O)c3cccc(F)c3)C[C@@H]21` [Compound 2b], the solubility ([1]; 0.1 N HCl, simulated gastric fluid, 0.1N HCL, solubility of salts transformed to freebase) was 0.206 mg/mL, the solubility ([1]; FaSSIF (Simulated Small Intestinal Fluid, fasted state), fassif, FaSSIF, solubility of salts transformed to freebase) was 0.01 mg/mL and the solubility ([1]; FeSSIF (Simulated Small Intestinal Fluid, fed state), fessif, FeSSIF, solubility of salts transformed to freebase) was 0.011 mg/mL. For the same compound, the “Solubility conc.(mg/ml)” value ([1]; SGF, solubility of salts transformed to freebase) was 0.147 mg/mL, the solubility ([1]; pH 4.5 acetate buffer (USP), pH 4.5, aqueous buffer, pH 4.5 Acetate Buffer (USP), solubility of salts transformed to freebase) was 0.01 mg/mL and the solubility ([1]; pH 6.8 phosphate buffer (USP), pH 6.8, aqueous buffer, pH 6.8 Phosphate Buffer (USP), solubility of salts transformed to freebase) was 0.008 mg/mL. The “Final pH” value ([1]; 0.1N HCL) was 1.59, the “Final pH” value ([1]; FaSSIF) was 6.23 and the “Final pH” value ([1]; FeSSIF) was 4.93. For the same compound, the “Final pH” value ([1]; SGF) was 1.59, the “Final pH” value ([1]; Water) was 2.74 and the “Final pH” value ([1]; pH 4.5 Acetate Buffer (USP)) was 4.44. The “Final pH” value ([1]; pH 6.8 Phosphate Buffer (USP)) was 6.67, the solubility ([1]; water, water, Water, solubility of salts transformed to freebase) was 0.096 mg/mL and the “Temperature until which there is no weight loss” value [2] was “about 200 °C”. The “Hygroscopicity classification by DVS” value ([3]; 25 °C) was “not hygroscopic”, the “Change In Mass (%) - ref, Desorption” value ([3]; Cycle 1, target RH 0.0%) was −0.0081% and the “Change In Mass (%) - ref, Sorption” value ([3]; Cycle 1, target RH 0.0%) was 0.0011%. For the same compound, the “Change In Mass (%) - ref, Desorption” value ([3]; Cycle 1, target RH 5.0%) was −0.0035%, the “Change In Mass (%) - ref, Hysteresis” value ([3]; Cycle 1, target RH 5.0%) was −0.0042% and the “Change In Mass (%) - ref, Sorption” value ([3]; Cycle 1, target RH 5.0%) was 0.0007%. The “Change In Mass (%) - ref, Desorption” value ([3]; Cycle 1, target RH 10.0%) was 0.0000%, the “Change In Mass (%) - ref, Hysteresis” value ([3]; Cycle 1, target RH 10.0%) was −0.0032% and the “Change In Mass (%) - ref, Sorption” value ([3]; Cycle 1, target RH 10.0%) was 0.0032%. The “Change In Mass (%) - ref, Desorption” value ([3]; Cycle 1, target RH 15.0%) was 0.0011%, the “Change In Mass (%) - ref, Hysteresis” value ([3]; Cycle 1, target RH 15.0%) was −0.0033% and the “Change In Mass (%) - ref, Sorption” value ([3]; Cycle 1, target RH 15.0%) was 0.0044%. For the same compound, the “Change In Mass (%) - ref, Desorption” value ([3]; Cycle 1, target RH 20.0%) was 0.0044%, the “Change In Mass (%) - ref, Hysteresis” value ([3]; Cycle 1, target RH 20.0%) was −0.0037% and the “Change In Mass (%) - ref, Sorption” value ([3]; Cycle 1, target RH 20.0%) was 0.0081%. The “Change In Mass (%) - ref, Desorption” value ([3]; Cycle 1, target RH 25.0%) was 0.0062%, the “Change In Mass (%) - ref, Hysteresis” value ([3]; Cycle 1, target RH 25.0%) was −0.0037% and the “Change In Mass (%) - ref, Sorption” value ([3]; Cycle 1, target RH 25.0%) was 0.0099%. For the same compound, the “Change In Mass (%) - ref, Desorption” value ([3]; Cycle 1, target RH 30.0%) was 0.0081%, the “Change In Mass (%) - ref, Hysteresis” value ([3]; Cycle 1, target RH 30.0%) was −0.0037% and the “Change In Mass (%) - ref, Sorption” value ([3]; Cycle 1, target RH 30.0%) was 0.0118%. The “Change In Mass (%) - ref, Desorption” value ([3]; Cycle 1, target RH 35.0%) was 0.0100%, the “Change In Mass (%) - ref, Hysteresis” value ([3]; Cycle 1, target RH 35.0%) was −0.0033% and the “Change In Mass (%) - ref, Sorption” value ([3]; Cycle 1, target RH 35.0%) was 0.0134%. The “Change In Mass (%) - ref, Desorption” value ([3]; Cycle 1, target RH 40.0%) was 0.0123%, the “Change In Mass (%) - ref, Hysteresis” value ([3]; Cycle 1, target RH 40.0%) was −0.0026% and the “Change In Mass (%) - ref, Sorption” value ([3]; Cycle 1, target RH 40.0%) was 0.0150%. The “Change In Mass (%) - ref, Desorption” value ([3]; Cycle 1, target RH 45.0%) was 0.0185%, the “Change In Mass (%) - ref, Hysteresis” value ([3]; Cycle 1, target RH 45.0%) was 0.0012% and the “Change In Mass (%) - ref, Sorption” value ([3]; Cycle 1, target RH 45.0%) was 0.0173%. The “Change In Mass (%) - ref, Desorption” value ([3]; Cycle 1, target RH 50.0%) was 0.0204%, the “Change In Mass (%) - ref, Hysteresis” value ([3]; Cycle 1, target RH 50.0%) was 0.0035% and the “Change In Mass (%) - ref, Sorption” value ([3]; Cycle 1, target RH 50.0%) was 0.0169%. The “Change In Mass (%) - ref, Desorption” value ([3]; Cycle 1, target RH 55.0%) was 0.0243%, the “Change In Mass (%) - ref, Hysteresis” value ([3]; Cycle 1, target RH 55.0%) was 0.0056% and the “Change In Mass (%) - ref, Sorption” value ([3]; Cycle 1, target RH 55.0%) was 0.0187%. The “Change In Mass (%) - ref, Desorption” value ([3]; Cycle 1, target RH 60.0%) was 0.0264%, the “Change In Mass (%) - ref, Hysteresis” value ([3]; Cycle 1, target RH 60.0%) was 0.0063% and the “Change In Mass (%) - ref, Sorption” value ([3]; Cycle 1, target RH 60.0%) was 0.0201%. The “Change In Mass (%) - ref, Desorption” value ([3]; Cycle 1, target RH 65.0%) was 0.0294%, the “Change In Mass (%) - ref, Hysteresis” value ([3]; Cycle 1, target RH 65.0%) was 0.0083% and the “Change In Mass (%) - ref, Sorption” value ([3]; Cycle 1, target RH 65.0%) was 0.0211%. For the same compound, the “Change In Mass (%) - ref, Desorption” value ([3]; Cycle 1, target RH 70.0%) was 0.0344%, the “Change In Mass (%) - ref, Hysteresis” value ([3]; Cycle 1, target RH 70.0%) was 0.0074% and the “Change In Mass (%) - ref, Sorption” value ([3]; Cycle 1, target RH 70.0%) was 0.0270%. For the same compound, the “Change In Mass (%) - ref, Desorption” value ([3]; Cycle 1, target RH 75.0%) was 0.0382%, the “Change In Mass (%) - ref, Hysteresis” value ([3]; Cycle 1, target RH 75.0%) was 0.0030% and the “Change In Mass (%) - ref, Sorption” value ([3]; Cycle 1, target RH 75.0%) was 0.0352%. For the same compound, the “Change In Mass (%) - ref, Desorption” value ([3]; Cycle 1, target RH 80.0%) was 0.0446%, the “Change In Mass (%) - ref, Hysteresis” value ([3]; Cycle 1, target RH 80.0%) was 0.0037% and the “Change In Mass (%) - ref, Sorption” value ([3]; Cycle 1, target RH 80.0%) was 0.0409%. For the same compound, the “Change In Mass (%) - ref, Desorption” value ([3]; Cycle 1, target RH 85.0%) was 0.0530%, the “Change In Mass (%) - ref, Hysteresis” value ([3]; Cycle 1, target RH 85.0%) was 0.0030% and the “Change In Mass (%) - ref, Sorption” value ([3]; Cycle 1, target RH 85.0%) was 0.0500%. The “Change In Mass (%) - ref, Desorption” value ([3]; Cycle 1, target RH 90.0%) was 0.0689%, the “Change In Mass (%) - ref, Hysteresis” value ([3]; Cycle 1, target RH 90.0%) was 0.0051% and the “Change In Mass (%) - ref, Sorption” value ([3]; Cycle 1, target RH 90.0%) was 0.0638%. For the same compound, the “Change In Mass (%) - ref, Desorption” value ([3]; Cycle 1, target RH 95.0%) was 0.0941%, the “Change In Mass (%) - ref, Sorption” value ([3]; Cycle 1, target RH 95.0%) was 0.0941% and the “moisture picked up (DVS)” value ([3]; at 95% RH, 25 °C) was ~0.1%. For the same compound, the “Solution stability, overall comparison of 1b, 2b and 3b” value ([4]; 25° C. and 37° C.) was “best solution stability behaviors”, the Remaining % ([4]; 25° C., 0.1N HCL, 0 h) was 100.00% and the Remaining % ([4]; 25° C., 0.1N HCL, 3 h) was 100.07%. For the same compound, the Remaining % ([4]; 25° C., 0.1N HCL, 24 h) was 100.37%, the Solution stability ([4]; 25° C., 24 h) was “stable” and the Remaining % ([4]; 25° C., pH 4.5, 0 h) was 100.00%. It also gave a Remaining % ([4]; 25° C., pH 4.5, 3 h) of 99.80%, a Remaining % ([4]; 25° C., pH 4.5, 24 h) of 99.52% and a Remaining % ([4]; 25° C., pH 6.8, 0 h) of 100.00%. For the same compound, the Remaining % ([4]; 25° C., pH 6.8, 3 h) was 99.52%, the Remaining % ([4]; 25° C., pH 6.8, 24 h) was 98.01% and the Remaining % ([4]; 37° C., 0.1N HCL, 0 h) was 100.00%. The Remaining % ([4]; 37° C., 0.1N HCL, 3 h) was 100.34%, the Remaining % ([4]; 37° C., 0.1N HCL, 24 h) was 100.95% and the Solution stability ([4]; 37° C., 24 h) was “stable”. It also gave a Remaining % ([4]; 37° C., pH 4.5, 0 h) of 100.00%, a Remaining % ([4]; 37° C., pH 4.5, 3 h) of 100.00% and a Remaining % ([4]; 37° C., pH 4.5, 24 h) of 99.45%. It also gave a Remaining % ([4]; 37° C., pH 6.8, 0 h) of 100.00%, a Remaining % ([4]; 37° C., pH 6.8, 3 h) of 100.28% and a Remaining % ([4]; 37° C., pH 6.8, 24 h) of 99.86%. For the same compound, the “Solid-state stability (HPLC)” value ([5]; 40° C./0% RH (closed) and 40° C./75% RH (open), dark, up to 3 weeks) was “substantially stable”, the “0 day % remaining” value ([5]; 40° C. (0% RH, closed)) was 100.0% and the “7 day % remaining” value ([5]; 40° C. (0% RH, closed)) was 100.4%. For the same compound, the “21 day % remaining” value ([5]; 40° C. (0% RH, closed)) was 100.0%, the “0 day % remaining” value ([5]; 40° C./75% RH (open)) was 100.0% and the “7 day % remaining” value ([5]; 40° C./75% RH (open)) was 100.3%. For the same compound, the “21 day % remaining” value ([5]; 40° C./75% RH (open)) was 100.1%.
